Assay results: US20110033850A1, “COMPOSITIONS AND METHODS FOR THE IDENTIFICATION OF INHIBITORS OF RETROVIRAL INFECTION” (priority 2007, published 2011)

System: HIV
Experiment: anti-HIV activity in freshly harvested PBMC cells (secondary HIV assay)
Type: cell-based
Method: These compounds were analyzed for anti-HIV activity in freshly harvested PBMC cells. Of the 30 tested compounds, 15 were active at a concentration of less than 100 ˜M (the highest tested concentration). Of these 15 compounds, 9 were […] to the PBMC cells at the 100 ˜M concentration; thus, an absolute conclusion regarding the differential toxicity to HIV and PBMC cells cannot be drawn with these 9 compounds. […]

Row | Structure (SMILES) | anti-HIV activity [µM]
1 | CN(C)c1cccc2c(C=O)ccc(N(C)C)c12 | 0.022
2 | O=C1c2ccccc2C(=O)c2c1nc1ccccn21 [naphtho[2′,3′,4,5]imidazo[1,2-a]pyridine-6,11-dione] | 0.63
